Measured values: ChEMBL document CHEMBL1201862, “PubChem BioAssay data set” (2004)
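Tested at 5 concentrations; 48 h exposure; 96-well plates; endpoints linearly interpolated, else capped at highest concentration. GI50: concentration for 50% inhibition of growth.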 The source made the active and inactive calls. Cut-off read from the data, not from the text of the source: active = GI50 up to about 1.1 µM and inactive = higher.

Tests used:
Assay in all cases: NCI-60 cell line screen, 48 h
RXF 393 = test system: RXF 393
HOP-62 = test system: HOP-62
NCI/ADR-RES = test system: NCI/ADR-RES
MOLT-4 = test system: MOLT-4
A549 = test system: A549
CAKI-1 = test system: CAKI-1
OVCAR-4 = test system: OVCAR-4
KM-20L2 = test system: KM-20L2
MDA-MB-231 = test system: MDA-MB-231
Malme-3M = test system: Malme-3M
U-251 = test system: U-251
SK-MEL-28 = test system: SK-MEL-28
HT-29 = test system: HT-29
DMS-114 = test system: DMS-114
M19-MEL = test system: M19-MEL
MDA-MB-435 = test system: MDA-MB-435
HCC 2998 = test system: HCC 2998
M14 = test system: M14
CCRF-CEM = test system: CCRF-CEM
SK-MEL-2 = test system: SK-MEL-2
DLD-1 = test system: DLD-1
OVCAR-3 = test system: OVCAR-3
786-0 = test system: 786-0
Hs-578T = test system: Hs-578T
IGROV-1 = test system: IGROV-1
HCT-15 = test system: HCT-15
LXFL 529 = test system: LXFL 529
DU-145 = test system: DU-145
XF498 = test system: XF498
SK-OV-3 = test system: SK-OV-3
SR = test system: SR
NCI-H226 = test system: NCI-H226
SK-MEL-5 = test system: SK-MEL-5
EKVX = test system: EKVX
SNB-78 = test system: SNB-78
SNB-19 = test system: SNB-19
NCI-H522 = test system: NCI-H522
ACHN = test system: ACHN
T47D = test system: T47D
SN12C = test system: SN12C
A498 = test system: A498
COLO 205 = test system: COLO 205
SF-295 = test system: SF-295
HOP-92 = test system: HOP-92
OVCAR-8 = test system: OVCAR-8
SNB-75 = test system: SNB-75
NCI-H460 = test system: NCI-H460
LOX IMVI = test system: LOX IMVI
OVCAR-5 = test system: OVCAR-5
K562 = test system: K562
DMS-273 = test system: DMS-273
UACC-257 = test system: UACC-257
MDA-N = test system: MDA-N
KM12 = test system: KM12
UACC-62 = test system: UACC-62
HCT-116 = test system: HCT-116
SF-268 = test system: SF-268
BT-549 = test system: BT-549
MCF7 = test system: MCF7
PC-3 = test system: PC-3
TK-10 = test system: TK-10
SW-620 = test system: SW-620
HL-60 = test system: HL-60
UO-31 = test system: UO-31
RXF 631 = test system: RXF 631
SF-539 = test system: SF-539
NCI-H23 = test system: NCI-H23
RPMI-8226 = test system: RPMI-8226

Which results are given for CN(C)CCNc1ccc2nnn3c4ccccc4c(=O)c1c23?
GI50 (RXF 393): 5.51 µM (inactive); GI50 (HOP-62): 3.72 µM (inactive); GI50 (NCI/ADR-RES): 2.4 µM (inactive); GI50 (MOLT-4): 1.27 µM (inactive); GI50 (A549): 2.26 µM (inactive); GI50 (CAKI-1): 2.5 µM (inactive); GI50 (OVCAR-4): 3.08 µM (inactive); GI50 (KM-20L2): 2.68 µM (inactive); GI50 (MDA-MB-231): 3.69 µM (inactive); GI50 (Malme-3M): 3.01 µM (inactive); GI50 (U-251): 1.95 µM (inactive); GI50 (SK-MEL-28): 4.99 µM (inactive); GI50 (HT-29): 2.01 µM (inactive); GI50 (DMS-114): 4.07 µM (inactive); GI50 (M19-MEL): 2.86 µM (inactive); GI50 (MDA-MB-435): 3.44 µM (inactive); GI50 (HCC 2998): 7.13 µM (inactive); GI50 (M14): 3.07 µM (inactive); GI50 (CCRF-CEM): 2.27 µM (inactive); GI50 (SK-MEL-2): 3.7 µM (inactive); GI50 (DLD-1): 3.61 µM (inactive); GI50 (OVCAR-3): 3.36 µM (inactive); GI50 (786-0): 3.27 µM (inactive); GI50 (Hs-578T): 3.3 µM (inactive); GI50 (IGROV-1): 3.38 µM (inactive); GI50 (HCT-15): 3.25 µM; GI50 (LXFL 529): 3.6 µM (inactive); GI50 (DU-145): 3.91 µM (inactive); GI50 (XF498): 6.38 µM (inactive); GI50 (SK-OV-3): 7.87 µM (inactive); GI50 (SR): 2.34 µM (inactive); GI50 (NCI-H226): 1.74 µM (inactive); GI50 (SK-MEL-5): 2.15 µM (inactive); GI50 (EKVX): 3.78 µM (inactive); GI50 (SNB-78): 6.34 µM (inactive); GI50 (SNB-19): 4.56 µM (inactive); GI50 (NCI-H522): 2.64 µM (inactive); GI50 (ACHN): 1.22 µM (inactive); GI50 (T47D): 6 µM (inactive); GI50 (SN12C): 2.96 µM (inactive); GI50 (A498): 2.59 µM (inactive); GI50 (COLO 205): 1.34 µM (inactive); GI50 (SF-295): 3.57 µM (inactive); GI50 (HOP-92): 2.48 µM (inactive); GI50 (OVCAR-8): 2.21 µM (inactive); GI50 (SNB-75): 2.55 µM (inactive); GI50 (NCI-H460): 2.25 µM (inactive); GI50 (LOX IMVI): 1.62 µM (inactive); GI50 (OVCAR-5): 3.72 µM (inactive); GI50 (K562): 2.86 µM (inactive); GI50 (DMS-273): 3.2 µM (inactive); GI50 (UACC-257): 3.46 µM (inactive); GI50 (MDA-N): 2.81 µM (inactive); GI50 (KM12): 3.85 µM (inactive); GI50 (UACC-62): 3.39 µM (inactive); GI50 (HCT-116): 1.56 µM (inactive); GI50 (SF-268): 4.22 µM (inactive); GI50 (BT-549): 13.2 µM (inactive); GI50 (MCF7): 4.32 µM (inactive); GI50 (PC-3): 2.41 µM (inactive); GI50 (TK-10): 3.31 µM (inactive); GI50 (SW-620): 1.59 µM (inactive); GI50 (HL-60): 3.44 µM (inactive); GI50 (UO-31): 1.32 µM (inactive); GI50 (RXF 631): 1.81 µM (inactive); GI50 (SF-539): 4.75 µM (inactive); GI50 (NCI-H23): 3.91 µM (inactive); GI50 (RPMI-8226): 2.92 µM (inactive)

C=C1C(=O)O[C@@H]2C[C@@]3(C)[C@H](O)CCC(=C)[C@@H]3C[C@H]12 [ASPERILIN] was tested. Which GI50 (HOP-62) did it give?
The GI50 was 17.1 µM (inactive).

What about the GI50 (A549) of the same compound?
Its GI50 is 21.5 µM (inactive).

What about the GI50 (CAKI-1) of the same compound?
The GI50 was 5.58 µM (inactive).

What about the GI50 (OVCAR-4) of the same compound?
The GI50 was 11.8 µM (inactive).

What about the GI50 (KM-20L2) of the same compound?
The GI50 was 7.53 µM (inactive).

And the GI50 (Malme-3M)?
The GI50 was 3.11 µM (inactive).

What about the GI50 (U-251) of the same compound?
Its GI50 is 13.4 µM (inactive).

What about the GI50 (SK-MEL-28) of the same compound?
The GI50 was 7.59 µM (inactive).

What about the GI50 (HT-29) of the same compound?
The GI50 was 3.6 µM (inactive).

And the GI50 (DMS-114)?
The GI50 was 14.4 µM (inactive).

And the GI50 (M19-MEL)?
Its GI50 is 6.68 µM (inactive).

And the GI50 (HCC 2998)?
The GI50 was 7.05 µM (inactive).

What about the GI50 (M14) of the same compound?
The GI50 was 3.31 µM (inactive).

And the GI50 (CCRF-CEM)?
Its GI50 is 3.01 µM (inactive).

What about the GI50 (SK-MEL-2) of the same compound?
Its GI50 is 11.6 µM (inactive).

What about the GI50 (DLD-1) of the same compound?
The GI50 was 3.69 µM (inactive).

And the GI50 (OVCAR-3)?
Its GI50 is 8.15 µM (inactive).

What about the GI50 (786-0) of the same compound?
Its GI50 is 9.66 µM (inactive).

What about the GI50 (IGROV-1) of the same compound?
Its GI50 is 20.5 µM (inactive).

And the GI50 (HCT-15)?
Its GI50 is 11.3 µM.

What about the GI50 (LXFL 529) of the same compound?
The GI50 was 2.75 µM (inactive).

And the GI50 (XF498)?
Its GI50 is 2.59 µM (inactive).

And the GI50 (SK-OV-3)?
The GI50 was 22.3 µM (inactive).

What about the GI50 (SR) of the same compound?
The GI50 was 3.14 µM (inactive).

What about the GI50 (NCI-H226) of the same compound?
Its GI50 is 4.29 µM (inactive).

And the GI50 (SK-MEL-5)?
Its GI50 is 4.26 µM (inactive).

What about the GI50 (EKVX) of the same compound?
Its GI50 is 16.1 µM (inactive).

What about the GI50 (SNB-78) of the same compound?
Its GI50 is 6.04 µM (inactive).

And the GI50 (SNB-19)?
The GI50 was 18.7 µM (inactive).

What about the GI50 (NCI-H522) of the same compound?
Its GI50 is 4.16 µM (inactive).

What about the GI50 (ACHN) of the same compound?
The GI50 was 14.4 µM (inactive).

And the GI50 (SN12C)?
The GI50 was 5.94 µM (inactive).

What about the GI50 (COLO 205) of the same compound?
The GI50 was 2.72 µM (inactive).

What about the GI50 (SF-295) of the same compound?
Its GI50 is 14.1 µM (inactive).

What about the GI50 (HOP-92) of the same compound?
The GI50 was 5.13 µM (inactive).

And the GI50 (OVCAR-8)?
Its GI50 is 7.24 µM (inactive).

What about the GI50 (SNB-75) of the same compound?
Its GI50 is 3.69 µM (inactive).

What about the GI50 (NCI-H460) of the same compound?
The GI50 was 6.14 µM (inactive).

What about the GI50 (LOX IMVI) of the same compound?
The GI50 was 5.27 µM (inactive).

What about the GI50 (OVCAR-5) of the same compound?
Its GI50 is 6.12 µM (inactive).

And the GI50 (K562)?
Its GI50 is 2.39 µM (inactive).

What about the GI50 (DMS-273) of the same compound?
The GI50 was 8.38 µM (inactive).

And the GI50 (KM12)?
The GI50 was 3.49 µM (inactive).

What about the GI50 (UACC-62) of the same compound?
The GI50 was 5.96 µM (inactive).

What about the GI50 (HCT-116) of the same compound?
The GI50 was 4.86 µM (inactive).

And the GI50 (SF-268)?
The GI50 was 15.6 µM (inactive).

What about the GI50 (TK-10) of the same compound?
The GI50 was 12.5 µM (inactive).

And the GI50 (SW-620)?
Its GI50 is 3.44 µM (inactive).

What about the GI50 (UO-31) of the same compound?
Its GI50 is 10.8 µM (inactive).

What about the GI50 (RXF 631) of the same compound?
Its GI50 is 13.6 µM (inactive).

And the GI50 (SF-539)?
Its GI50 is 11 µM (inactive).

And the GI50 (NCI-H23)?
Its GI50 is 11.4 µM (inactive).

And the GI50 (RPMI-8226)?
The GI50 was 3.46 µM (inactive).
